Experimental findings from patent US11753446B2, “Beta-hairpin peptidomimetics” (POLYPHOR AG, priority 2014, dated 2023) are described below.

Data set [1] has as its system Acinetobacter baumannii DSM 30008. Type of data set: cell-based. As to conditions: DSM 30008. The procedure, abridged:
(§1)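 Peptide activity was tested by NCCLS broth microdilution with slight modifications. Bacteria were diluted in cation-adjusted Mueller-Hinton II broth to approximately 10^6 CFU/mL against a 0.5 McFarland standard. They were then exposed to two-fold serial peptide dilutions in broth containing 0.002% final polysorbate 80.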

In data set [2] the test system is Escherichia coli ATCC 25922. The class given is cell-based. As to conditions: ATCC 25922. The procedure, abridged: as §1
Data set [3] deals with Klebsiella pneumoniae ATCC 13883. Type of data set: cell-based. Conditions: ATCC 13883. The procedure, abridged:
as §1

The subject of data set [4] is human red blood cells (hRBC). Nature of the data set: Hemolysis: hemolytic activity at 100 μg/mL, 1 h at 37° C. Conditions: red cells of human, 1 h, 100. The method, boiled down:
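Peptides at 100 μg/mL incubated with washed 20% (v/v) human erythrocytes (~0.9×10^9 cells/mL) for 1 h at 37 °C with shaking. Released hemoglobin read at OD 540 nm in supernatant; 0% and 100% lysis from PBS/0.001% acetic acid and 2.5% Triton X-100.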

Where a SMILES comes first, the peptide text is derived from it. Bridges are numbered along the chain shown (N, C = ends). [ ]: non-standard residue; d: D form. Tle = CC(C)(C)[C@H](N)C(=O)O; dDab = NCC[C@@H](N)C(=O)O; Orn = NCCC[C@H](N)C(=O)O; Dab = NCC[C@H](N)C(=O)O; Dap = NC[C@H](N)C(=O)O

Turning to `CC(C)C[C@@H]1NC(=O)[C@H](CCCNC(=N)N)NC(=O)[C@@H](CCN)NC(=O)[C@H](C(C)C)NC(=O)[C@@H]2CSSC[C@H](NC1=O)C(=O)N[C@@H](Cc1ccc(O)cc1)C(=O)N[C@@H](CN)C(=O)N[C@@H](CCCN)C(=O)N[C@H](CCN)C(=O)N[C@@H](CCN)C(=O)N[C@@H](Cc1c[nH]c3ccccc13)C(=O)N[C@@H](CO)C(=O)N[C@@H](Cc1ccc(O)cc1)C(=O)N2` [Example 72, cyclo(-Leu-Cys-Tyr-Dap-Orn-^DDab-Dab-Trp-Ser-Tyr-Cys-Val-^DDab-Arg-)] (cyclo(CV[dDab]RLCY[Dap][Orn][dDab][Dab]WSY); disulfide 1-6), the “Acinetobacter baumannii DSM 30008 MIC” value in data set [1] came to 0.625 µg/mL. Moreover, in data set [2], the “Escherichia coli ATCC 25922 MIC” value came out at 0.75 µg/mL. Further, in data set [3], the “Klebsiella pneumoniae ATCC 13883 MIC” value amounted to 0.5 µg/mL. Also, the “Hemolysis at 100 μg/mL” value in data set [4] was found to be 3%.

In the case of `CC(C)C[C@@H]1NC(=O)[C@H](CCCNC(=N)N)NC(=O)[C@@H](C)NC(=O)[C@H](C(C)C)NC(=O)[C@@H]2CSSC[C@H](NC1=O)C(=O)N[C@@H](Cc1ccc(O)cc1)C(=O)N[C@@H](CCN)C(=O)N[C@@H](CCCN)C(=O)N[C@H](CCN)C(=O)N[C@@H](CCN)C(=O)N[C@@H](Cc1c[nH]c3ccccc13)C(=O)N[C@@H](CC(N)=O)C(=O)N[C@@H](Cc1ccc(O)cc1)C(=O)N2` [Example 73, cyclo(-Leu-Cys-Tyr-Dab-Orn-^DDab-Dab-Trp-Asn-Tyr-Cys-Val-^DAla-Arg-)] (HELM PEPTIDE1{C.V.[dA].R.L.C.Y.[Dab].[Orn].[NCC[C@@H](N[*:1])C(=O)[*:2]].[Dab].W.N.Y}$PEPTIDE1,PEPTIDE1,1:R3-6:R3|PEPTIDE1,PEPTIDE1,1:R1-14:R2$$$V2.0), the “Acinetobacter baumannii DSM 30008 MIC” value in data set [1] was determined as 1.5 µg/mL. Moreover, the “Escherichia coli ATCC 25922 MIC” value in data set [2] stood at 0.75 µg/mL. Also, in data set [3], the “Klebsiella pneumoniae ATCC 13883 MIC” value worked out at 1 µg/mL. Besides, the “Hemolysis at 100 μg/mL” value in data set [4] amounted to 1%.

As to `CC(C)C[C@@H]1NC(=O)[C@H](CCCNC(=N)N)NC(=O)[C@@H](CCN)NC(=O)[C@H]([C@@H](C)O)NC(=O)[C@@H]2CSSC[C@H](NC1=O)C(=O)N[C@@H](Cc1ccc(O)cc1)C(=O)N[C@@H](CC(N)=O)C(=O)N[C@@H](CCCN)C(=O)N[C@H](CCN)C(=O)N[C@@H](CCN)C(=O)N[C@@H](Cc1c[nH]c3ccccc13)C(=O)N[C@@H](CO)C(=O)N[C@@H](Cc1ccc(O)cc1)C(=O)N2` [Example 74, cyclo(-Leu-Cys-Tyr-Asn-Orn-^DDab-Dab-Trp-Ser-Tyr-Cys-Thr-^DDab-Arg-)] (HELM PEPTIDE1{C.T.[NCC[C@@H](N[*:1])C(=O)[*:2]].R.L.C.Y.N.[Orn].[NCC[C@@H](N[*:1])C(=O)[*:2]].[Dab].W.S.Y}$PEPTIDE1,PEPTIDE1,1:R3-6:R3|PEPTIDE1,PEPTIDE1,1:R1-14:R2$$$V2.0), in data set [1], the “Acinetobacter baumannii DSM 30008 MIC” value worked out at 1.5 µg/mL. The “Escherichia coli ATCC 25922 MIC” value in data set [2] came out at 4 µg/mL. Besides, the “Klebsiella pneumoniae ATCC 13883 MIC” value in data set [3] turned out to be 1 µg/mL. In addition, the “Hemolysis at 100 μg/mL” value in data set [4] came out at 1%.

`CC(C)C[C@@H]1NC(=O)[C@H](CCCNC(=N)N)NC(=O)[C@@H](CCN)NC(=O)[C@H]([C@@H](C)O)NC(=O)[C@@H]2CCNC(=O)C[C@H](NC1=O)C(=O)N[C@@H](Cc1ccc(O)cc1)C(=O)N[C@@H](CC(N)=O)C(=O)N[C@@H](CCCN)C(=O)N[C@H](CCN)C(=O)N[C@@H](CCN)C(=O)N[C@@H](Cc1c[nH]c3ccccc13)C(=O)N[C@@H](CO)C(=O)N[C@@H](C(C)(C)C)C(=O)N2` [Example 75, cyclo(-Leu-Asp-Tyr-Asn-Orn-^DDab-Dab-Trp-Ser-tBuGly-Dab-Thr-^DDab-Arg-)] (cyclo(LDYN[Orn][dDab][Dab]WS[Tle][Dab]T[dDab]R); lactam 2-11): in data set [1], the “Acinetobacter baumannii DSM 30008 MIC” value worked out at 1.5 µg/mL. For the same compound, the “Escherichia coli ATCC 25922 MIC” value in data set [2] was 1.5 µg/mL. In addition, the “Klebsiella pneumoniae ATCC 13883 MIC” value in data set [3] was 1 µg/mL. Also, the “Hemolysis at 100 μg/mL” value in data set [4] turned out to be 1%.

Turning to `CC(C)C[C@@H]1NC(=O)[C@H](CCN)NC(=O)[C@@H](CCN)NC(=O)[C@H]([C@@H](C)O)NC(=O)[C@@H]2CCNC(=O)C[C@H](NC1=O)C(=O)N[C@@H](Cc1ccc(O)cc1)C(=O)N[C@@H](CC(N)=O)C(=O)N[C@@H](CCCN)C(=O)N[C@H](CCN)C(=O)N[C@@H](CCN)C(=O)N[C@@H](Cc1c[nH]c3ccccc13)C(=O)N[C@@H](CO)C(=O)N[C@@H](C(C)(C)C)C(=O)N2` [Example 76, cyclo(-Leu-Asp-Tyr-Asn-Orn-^DDab-Dab-Trp-Ser-tBuGly-Dab-Thr-^DDab-Dab-)] (cyclo(LDYN[Orn][dDab][Dab]WS[Tle][Dab]T[dDab][Dab]); lactam 2-11), in data set [1], the “Acinetobacter baumannii DSM 30008 MIC” value turned out to be 1.5 µg/mL. Further, the “Escherichia coli ATCC 25922 MIC” value in data set [2] is 1 µg/mL. Further, in data set [3], the “Klebsiella pneumoniae ATCC 13883 MIC” value amounted to 1 µg/mL. For the same compound, the “Hemolysis at 100 μg/mL” value in data set [4] is on record as 2%.

With `CC(C)C[C@@H]1NC(=O)[C@@H]2CCCN2C(=O)[C@@H](C)NC(=O)[C@H](CO)NC(=O)[C@@H]2CCNC(=O)C[C@H](NC1=O)C(=O)N[C@@H](Cc1ccc(O)cc1)C(=O)N[C@@H](CCN)C(=O)N[C@@H](CCCN)C(=O)N[C@H](CCN)C(=O)N[C@@H](CCN)C(=O)N[C@@H](Cc1c[nH]c3ccccc13)C(=O)N[C@@H](CCN)C(=O)N[C@@H](Cc1ccc(O)cc1)C(=O)N2` [Example 77, cyclo(-Leu-Asp-Tyr-Dab-Orn-^DDab-Dab-Trp-Dab-Tyr-Dab-Ser-^DAla-Pro-)] (HELM PEPTIDE1{L.D.Y.[Dab].[Orn].[NCC[C@@H](N[*:1])C(=O)[*:2]].[Dab].W.[Dab].Y.[Dab].S.[dA].P}$PEPTIDE1,PEPTIDE1,2:R3-11:R3|PEPTIDE1,PEPTIDE1,1:R1-14:R2$$$V2.0), the “Acinetobacter baumannii DSM 30008 MIC” value in data set [1] stood at 3 µg/mL. Moreover, in data set [2], the “Escherichia coli ATCC 25922 MIC” value was determined as 1.5 µg/mL. The “Klebsiella pneumoniae ATCC 13883 MIC” value in data set [3] amounted to 2 µg/mL. The “Hemolysis at 100 μg/mL” value in data set [4] was found to be 1%.

Consider `CC(C)C[C@@H]1NC(=O)[C@H](CCCNC(=N)N)NC(=O)[C@H]2CCCN2C(=O)[C@H](C(C)C)NC(=O)[C@@H]2CSSC[C@H](NC1=O)C(=O)N[C@@H](Cc1ccc(O)cc1)C(=O)N[C@@H](CC(N)=O)C(=O)N[C@@H](CCCN)C(=O)N[C@H](CCN)C(=O)N[C@@H](CCN)C(=O)N[C@@H](Cc1c[nH]c3ccccc13)C(=O)N[C@@H](CCN)C(=O)N[C@@H](Cc1ccc(O)cc1)C(=O)N2` [Example 78, cyclo(-Leu-Cys-Tyr-Asn-Orn-^DDab-Dab-Trp-Dab-Tyr-Cys-Val-^DPro-Arg-)] (HELM PEPTIDE1{C.V.[dP].R.L.C.Y.N.[Orn].[NCC[C@@H](N[*:1])C(=O)[*:2]].[Dab].W.[Dab].Y}$PEPTIDE1,PEPTIDE1,1:R3-6:R3|PEPTIDE1,PEPTIDE1,1:R1-14:R2$$$V2.0), for which the “Acinetobacter baumannii DSM 30008 MIC” value in data set [1] was 1.5 µg/mL. For the same compound, in data set [2], the “Escherichia coli ATCC 25922 MIC” value came out at 1.5 µg/mL. Besides, in data set [3], the “Klebsiella pneumoniae ATCC 13883 MIC” value stood at 1 µg/mL. For the same compound, the “Hemolysis at 100 μg/mL” value in data set [4] was found to be 1%.

As for `CC(C)C[C@@H]1NC(=O)[C@H](CCCNC(=N)N)NC(=O)[C@@H](C)NC(=O)[C@H](C(C)C)NC(=O)[C@@H]2CSSC[C@H](NC1=O)C(=O)N[C@@H](Cc1ccc(O)cc1)C(=O)N[C@@H](CC(N)=O)C(=O)N[C@@H](CCCN)C(=O)N[C@H](CCN)C(=O)N[C@@H](CCN)C(=O)N[C@@H](Cc1c[nH]c3ccccc13)C(=O)N[C@@H](CCN)C(=O)N[C@@H](Cc1ccc(O)cc1)C(=O)N2` [Example 79, cyclo(-Leu-Cys-Tyr-Asn-Orn-^DDab-Dab-Trp-Dab-Tyr-Cys-Val-^DAla-Arg-)] (HELM PEPTIDE1{C.V.[dA].R.L.C.Y.N.[Orn].[NCC[C@@H](N[*:1])C(=O)[*:2]].[Dab].W.[Dab].Y}$PEPTIDE1,PEPTIDE1,1:R3-6:R3|PEPTIDE1,PEPTIDE1,1:R1-14:R2$$$V2.0), in data set [1], the “Acinetobacter baumannii DSM 30008 MIC” value came to 1.5 µg/mL. Moreover, the “Escherichia coli ATCC 25922 MIC” value in data set [2] came out at 1 µg/mL. In addition, the “Klebsiella pneumoniae ATCC 13883 MIC” value in data set [3] stood at 1 µg/mL. Also, in data set [4], the “Hemolysis at 100 μg/mL” value turned out to be 1%.
